One test concerns the target T1, Src (p60^c-src) (Homo sapiens, UniProt P12931).
T1 construct: purchased Upstate Biotechnology, Inc., Lake Placid, N.Y. (UBI)
The test can be described thus: SRC-Inhibitor-Assay, time-resolved fluorescence kinase assay (Src). The test is classed as biochemical. The settings on record: ATP 5 μM; peptide 10 μM; enzyme 2.5 U/ml; pre-incubated 15 min at 15° C. An excerpt: (§1) The activity of the compounds according to this invention as inhibitors for the src-family tyrosine kinases was shown by using the following assay. As used herein Ro refers to the peptide: NH2-A-E-E-E-I-Y-G-E-F-E-A-K-K-K-K-CONH2(SEQ ID NO: 1); Ja133-Ro refers to the peptide: Ja133-G-Aminocaprylic acid-A-E-E-E-I-Y-G-E-F-E-A-K-K-K-K-CONH2(SEQ ID NO: 2), wherein Ja133 is LightCycler-Red 640-N-hydroxy succinimide ester; PT66 refers to a phosphotyrosine specific antibody which can detect the phoyphorylated tyrosine of protein tyrosine kinase; and TCEP refers to Tris(2-carboxyethyl)phosphine; Lck Cisbio Mab PT66-K refers to Anti-Phosphotyrosine (PT66)-Cryptate; and Src EG&G Wallac PT66 Eu-W1024 refers to Eu^3+-labelled Anti-Phosphotyrosine (PT66)-Cryptate.
(§2) whereby both peptides were synthesized by an optimized solid phase peptide synthesis protocol (Merrifield, Fed. Proc. Fed. Amer. Soc. Exp. Biol. 21(1962) 412) on a Zinsser SMP350 peptide synthesizer. Shortly, the peptide was assembled on 160 mg (22.8 μmol scale) of a Rink-Linker modified polystyrene solid phase by repeatedly conjugating an twenty fold excess of amino acids each protected by temporary piperidine labile Fmoc- and permanent acid labile tert-Bu-, BOC- and tert-BuO-groups depending on the side chain function. The substrate sequence AEEEIYGEFEAKKKK (SEQ ID NO: 1) was N-terminal additionally mounted with the spacer amino acids Aminocaprylic acid and Glycin. After cleavage of the N-terminal temporary protecting group the still attached and protected peptide was labeled with a 1.5 fold amount of LightCycler-Red 640-N-hydroxy succinimide ester (purchased by Roche Diagnostics GmbH) and triethylamine. After 3 hrs. the resin was washed with Dimethylformamide and Isopropanol until the eluates of the blue resin got colorless. […] The substrate was finally isolated by a preparative reverse phase HPLC purification. The purification yielded 12.2 mg RP-HPLC single peak pure blue material (lyophilisate). The identity was proven by Matrix Assisted Laser Desorption Ionization (MALDI) mass spectroscopy [2720.0]. Enzymes: Upstate Lck (p56^lck, active), Upstate Src (p60^c-src, partially purified) were purchased from Upstate Biotechnology, Inc., Lake Placid, N.Y. (UBI). Time-resolved Fluorescence Assay: Reader: Perkin Elmer, Wallac Viktor 1420-040 multilabel counter; Liquid handling system: Beckman Coulter, Biomek 2000. ATP, Tween 20, HEPES were purchased from Roche Molecular Biochemicals, MgCl2 and MnCl2 were purchased from Merck Eurolab, TCEP was purchased from Pierce, 384 Well low volume fluorescence plates was purchased from Falcon. Assay Description:
(§3) At first the enzyme is pre-incubated for 15 min. at 15° C. in aqueous solution with corresponding amounts of inhibitors according to this invention. Then the phosphorylation reaction is started by adding a reaction mixture, containing ATP, Peptide and PT66, and subsequent shaking. The proceeding of this reaction is immediately monitored using time resolved fluorescence spectroscopy in a suitable well plate reader.
(§4) The IC50-values can be obtained from the reaction rates by using a non-linear curve fit (EXCELFIT software, from ID Business Solution Ltd., Guilford, Surrey, UK).

In the next test the target is T2, Lck (p56^lck) (Homo sapiens, UniProt P06239).
T2 construct: purchased Upstate Biotechnology, Inc., Lake Placid, N.Y. (UBI)
T2 sequence (P06239 whole entry, species assumed): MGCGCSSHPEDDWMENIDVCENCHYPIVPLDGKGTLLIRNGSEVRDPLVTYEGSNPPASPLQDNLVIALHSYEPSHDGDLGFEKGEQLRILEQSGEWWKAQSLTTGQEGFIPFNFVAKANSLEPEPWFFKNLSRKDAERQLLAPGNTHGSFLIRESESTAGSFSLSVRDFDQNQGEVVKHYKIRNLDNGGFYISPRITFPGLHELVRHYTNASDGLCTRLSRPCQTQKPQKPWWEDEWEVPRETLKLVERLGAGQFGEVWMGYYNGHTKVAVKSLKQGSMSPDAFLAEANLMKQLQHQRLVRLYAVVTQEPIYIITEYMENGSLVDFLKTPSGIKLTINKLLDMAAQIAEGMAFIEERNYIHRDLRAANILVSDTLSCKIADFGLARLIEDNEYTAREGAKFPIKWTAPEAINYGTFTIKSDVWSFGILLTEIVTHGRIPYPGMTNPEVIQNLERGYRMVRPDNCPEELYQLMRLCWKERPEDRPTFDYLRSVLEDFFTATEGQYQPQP
The test can be described thus: SRC-Inhibitor-Assay, time-resolved fluorescence kinase assay (Lck). The test is classed as biochemical. The settings on record: ATP 5 μM; peptide 10 μM; enzyme 2.5 U/ml; pre-incubated 15 min at 15° C.
From the text: as §1, §2, §3, §4

T1 sequence (P12931 whole entry): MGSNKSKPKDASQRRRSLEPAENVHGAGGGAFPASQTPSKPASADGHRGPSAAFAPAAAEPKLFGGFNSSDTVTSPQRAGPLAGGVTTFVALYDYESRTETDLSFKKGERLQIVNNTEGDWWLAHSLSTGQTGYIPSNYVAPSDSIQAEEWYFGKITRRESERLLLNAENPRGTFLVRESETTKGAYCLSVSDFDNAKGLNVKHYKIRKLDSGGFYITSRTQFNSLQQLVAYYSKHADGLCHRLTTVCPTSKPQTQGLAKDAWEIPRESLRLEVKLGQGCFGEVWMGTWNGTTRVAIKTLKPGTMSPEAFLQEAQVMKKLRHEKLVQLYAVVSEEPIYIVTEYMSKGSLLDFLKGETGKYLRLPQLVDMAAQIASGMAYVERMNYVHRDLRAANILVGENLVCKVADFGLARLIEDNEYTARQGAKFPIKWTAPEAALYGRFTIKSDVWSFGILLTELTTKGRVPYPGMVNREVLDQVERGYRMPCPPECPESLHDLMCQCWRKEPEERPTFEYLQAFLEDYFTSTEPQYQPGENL

For `O=C(NC[C@H]1CCCN1)c1nc2nc(Nc3ccc(N4CCOCC4)cc3)ncc2cc1-c1c(Cl)cccc1Cl` [Example 1, 6-(2,6-Dichloro-phenyl)-2-(4-morpholin-4-yl-phenylamino)-pyrido[2,3-d]pyrimidine-7-carboxylic acid ((R)-1-pyrrolidin-2-ylmethyl)-amide], the IC50 on Src (p60^c-src) turned out to be 0.4 nM; at Lck (p56^lck) it was 1.7 nM.

As to `CN1CCN(c2ccc(Nc3ncc4cc(-c5c(Cl)cccc5Cl)c(C(=O)NCCNS(C)(=O)=O)nc4n3)cc2)CC1` [Example 2, 6-(2,6-Dichloro-phenyl)-2-[4-(4-methyl-piperazin-1-yl)-phenylamino]-pyrido[2,3-d]pyrimidine-7-carboxylic acid (2-methanesulfonylamino-ethyl)-amide], the results for the IC50 against Src (p60^c-src) and at Lck (p56^lck) were 0.3 nM and 1 nM, respectively.

On to `CS(=O)(=O)NCCNC(=O)c1nc2nc(Nc3cccc(SCCO)c3)ncc2cc1-c1c(Cl)cccc1Cl` [Example 3, 6-(2,6-Dichloro-phenyl)-2-[3-(2-hydroxy-ethylsulfanyl)-phenylamino]-pyrido[2,3-d]pyrimidine-7-carboxylic acid (2-methanesulfonylamino-ethyl)-amide], for which the results for the IC50 on Src (p60^c-src) and at Lck (p56^lck) were 0.7 nM and 2 nM, respectively.

For the compound `N#Cc1nc2nc(Nc3ccc(OCCO)cc3)ncc2cc1-c1c(Cl)cccc1Cl` [Example 4, 6-(2,6-Dichloro-phenyl)-2-[4-(2-hydroxy-ethoxy)-phenylamino]-pyrido[2,3-d]pyrimidine-7-carbonitrile], the IC50 is 1.7 nM against Src (p60^c-src) and 6.4 nM against Lck (p56^lck).

`NC(=O)c1nc2nc(Nc3ccc(OCCO)cc3)ncc2cc1-c1c(Cl)cccc1Cl` [Example 5, 6-(2,6-Dichloro-phenyl)-2-[4-(2-hydroxy-ethoxy)-phenylamino]-pyrido[2,3-d]pyrimidine-7-carboxylic acid amide]: the IC50 against Src (p60^c-src) is 2.2 nM; on Lck (p56^lck), 7.6 nM.

Regarding `O=C(NCCO)c1nc2nc(Nc3ccc(OCCO)cc3)ncc2cc1-c1c(Cl)cccc1Cl` [Example 6-1, 6-(2,6-Dichloro-phenyl)-2-[4-(2-hydroxy-ethoxy)-phenylamino]-pyrido[2,3-d]pyrimidine-7-carboxylic acid (2-hydroxy-ethyl)-amide], the values for the IC50 at Src (p60^c-src) and against Lck (p56^lck) were 5.4 nM and 8.2 nM, respectively.

Regarding `O=C(NCCO)c1nc2nc(Nc3ccc(N4CCOCC4)cc3)ncc2cc1-c1c(Cl)cccc1Cl` [Example 6-2, 6-(2,6-Dichloro-phenyl)-2-(4-morpholin-4-yl-phenylamino)-pyrido[2,3-d]pyrimidine-7-carboxylic acid (2-hydroxy-ethyl)-amide], the values for the IC50 against Src (p60^c-src) and on Lck (p56^lck) were 1.8 nM and 4.1 nM, respectively.

Turning to `CS(=O)(=O)NCCNC(=O)c1nc2nc(Nc3ccc(N4CCOCC4)cc3)ncc2cc1-c1c(Cl)cccc1Cl` [Example 6-3, 6-(2,6-Dichloro-phenyl)-2-(4-morpholin-4-yl-phenylamino)-pyrido[2,3-d]pyrimidine-7-carboxylic acid (2-methanesulfonylamino-ethyl)-amide], the IC50 on Src (p60^c-src) was 0.9 nM; against Lck (p56^lck) it was 1.5 nM.

`CS(=O)(=O)NCCNC(=O)c1nc2nc(Nc3ccc(OCCO)cc3)ncc2cc1-c1c(Cl)cccc1Cl` [Example 6-4, 6-(2,6-Dichloro-phenyl)-2-[4-(2-hydroxy-ethoxy)-phenylamino]-pyrido[2,3-d]pyrimidine-7-carboxylic acid (2-methanesulfonylamino-ethyl)-amide]: the IC50 at Src (p60^c-src) amounted to 1.1 nM; at Lck (p56^lck), 1.6 nM.

`O=C(NC[C@H]1CCCN1)c1nc2nc(Nc3ccc(OCCO)cc3)ncc2cc1-c1c(Cl)cccc1Cl` [Example 6-5, 6-(2,6-Dichloro-phenyl)-2-[4-(2-hydroxy-ethoxy)-phenylamino]-pyrido[2,3-d]pyrimidine-7-carboxylic acid ((R)-1-pyrrolidin-2-ylmethyl)-amide]: the values for the IC50 against Src (p60^c-src) and at Lck (p56^lck) were 0.6 nM and 1.7 nM, respectively.

`CS(=O)(=O)NCCNC(=O)c1nc2nc(Nc3cccc(NS(C)(=O)=O)c3)ncc2cc1-c1c(Cl)cccc1Cl` [Example 6-6, 6-(2,6-Dichloro-phenyl)-2-(3-methanesulfonylamino-phenylamino)-pyrido[2,3-d]pyrimidine-7-carboxylic acid (2-methanesulfonylamino-ethyl)-amide]: the IC50 against Src (p60^c-src) came to 0.2 nM; against Lck (p56^lck), 1.3 nM.

Regarding `CSc1cccc(Nc2ncc3cc(-c4c(Cl)cccc4Cl)c(C(=O)NCCNS(C)(=O)=O)nc3n2)c1` [Example 6-7, 6-(2,6-Dichloro-phenyl)-2-(3-methylsulfanyl-phenylamino)-pyrido[2,3-d]pyrimidine-7-carboxylic acid (2-methanesulfonylamino-ethyl)-amide], the IC50 against Src (p60^c-src) was determined as 2.5 nM; on Lck (p56^lck), 9.9 nM.

In the case of `Cc1ccc(Nc2ncc3cc(-c4c(Cl)cccc4Cl)c(C(=O)NCCNS(C)(=O)=O)nc3n2)cn1` [Example 6-8, 6-(2,6-Dichloro-phenyl)-2-(6-methyl-pyridin-3-ylamino)-pyrido[2,3-d]pyrimidine-7-carboxylic acid (2-methanesulfonylamino-ethyl)-amide], the values for the IC50 against Src (p60^c-src) and on Lck (p56^lck) were 4.7 nM and 7.8 nM, respectively.

As to `CCN(CC)CCOc1ccc(Nc2ncc3cc(-c4c(Cl)cccc4Cl)c(C#N)nc3n2)cc1` [Example 7-1, 6-(2,6-Dichloro-phenyl)-2-[4-(2-diethylamino-ethoxy)-phenylamino]-pyrido[2,3-d]pyrimidine-7-carbonitrile], the IC50 against Src (p60^c-src) is 0.5 nM; on Lck (p56^lck) it was 2.7 nM.

In the case of `N#Cc1nc2nc(Nc3ccc(N4CCOCC4)cc3)ncc2cc1-c1c(Cl)cccc1Cl` [Example 7-2, 6-(2,6-Dichloro-phenyl)-2-(4-morpholin-4-yl-phenylamino)-pyrido[2,3-d]pyrimidine-7-carbonitrile], the IC50 against Src (p60^c-src) was 1.3 nM; against Lck (p56^lck) it was 11.7 nM.

Consider `NC(=O)c1nc2nc(Nc3ccc(N4CCOCC4)cc3)ncc2cc1-c1c(Cl)cccc1Cl` [Example 8-1, 6-(2,6-Dichloro-phenyl)-2-(4-morpholin-4-yl-phenylamino)-pyrido[2,3-d]pyrimidine-7-carboxylic acid amide], for which the IC50 against Src (p60^c-src) came to 1 nM; at Lck (p56^lck) it was 3.7 nM.

The values are drawn from patent publication US7189732B2, “Pyrido[2,3-d]pyrimidine dichloro-phenyl derivatives” (Hoffman-La Roche Inc., priority 2004, dated 2007).
